Measurements published in patent US20250281496A1, “METHODS OF TREATING NEUROPATHY USING FORETINIB AND COMPOSITIONS THEREOF” (INDIANA UNIVERSITY RESEARCH AND TECHNOLOGY CORPORATION, priority 2022, published 2025).

What was measured:
[1] = system: sympathetic and sensory neurons; conditions: in vitro, previously shown (ref 17); cited from earlier work
[2] = system: sympathetic and sensory neurons; experiment: Neuroprotection in primary culture of sympathetic and sensory neurons (trophic deprivation); assay type: cell-based
[3] = system: experimental diabetic neuropathy; experiment: Three-dimensional assessment of cutaneous innervation (volumetric nerve fiber density) in STZ-diabetic mice; assay type: in vivo; conditions: 30 mg/kg oral daily; 5 weeks post-STZ; non-treated 44.9%, vehicle 37.8%
Method: In total, 20 mice were injected with 100 mg/kg bodyweight of streptozotocin (STZ, […], Sigma Aldrich) in 0.1M citrate buffer (pH 4.5) on two consecutive days respectively, to induce diabetes type 1^27. Prior to the first injection and in weekly intervals thereafter, all animals were weighted and underwent tail prick blood sugar measurements using a clinical grade monitoring system (Contour One, Ascensia Diabetes Care, Mississauga, Ontario) as previously described. Mice were considered diabetic when blood glucose was at least 15 mmol/L (270 mg/dl). Prior to diabetes induction the mice were block randomized into experimental groups (n=10 Foretinib treatment, n=5 vehicle treatment, n=5 non-treated diabetic control). An additional 5 non-diabetic animals served as a healthy control. Foretinib treatments started 1-week post-diabetes induction. Foretinib was prepared fresh daily by dissolving 6 mg Foretinib in 1 ml of 1% (Hydroxypropyl)-methyl cellulose (09963, Sigma Aldrich) and 0.2% sodium dodecyl sulfate ([…], Sigma Aldrich) in sterile H2O. […] Cutaneous nerve fibers were semiautomatically traced using batch processing with consistent fluorescence intensity thresholds across the entire data set. Volumetric nerve fiber density was determined as total nerve fiber volume per skin tissue volume for an 830×830×200 μm region of interest.

[4] = system: human iPSC-derived cultured MNs; experiment: Thapsigargin- and Tunicamycin-induced death of human iPSC-derived motor neurons; assay type: cell-based; conditions: 1 μM Thapsigargin or 1 μM Tunicamycin, 0.5 uM Foretinib, 48 hrs
Method: A) Rat sympathetic neurons grown in compartmented cultures for one week in the presence of NGF were switched into the indicated conditions for 48 h and immunostained for βIII-tubulin (white). Schematics on the left show the configurations used. In the top panels, NGF was maintained in all compartments. In the center and bottom panels, NGF was withdrawn from all compartments. At the bottom panel and 500 nM foretinib (Foret) added to one of the sides and the center compartment. Fluorescence images show βIII-tubulin-positive axons in the sides compartment. At the right, enlarged images of the axons per condition. While the NGF deprived neurons degenerated (axonal beading and degradation in the central panel), Foretinib supplemented (lower panel) axons kept growing Red arrow at the top of the image indicates the distance of the axonal extension during 48 h since NGF withdrawal. Size bar: […].B) MNs were differentiated from healthy human iPS (Line ID 1016A)^62 as described^63. 3 day old MNs were treated with either 1 μM of Thapsigargin (Thaps) or 1 μM Tunicamycin (Tuni) and/or with either 0.5 uM of Foretinib. […] C) Quantitative representation of the results as in B. Error bars represent standard error; *p<0.05; ***p<0.005; t-test. […] E) Quantitative representation of changes in mouse body weight in dependence of the indicated IP daily doses of Foretinib.

[5] = mouse, in vivo, ip, 20 days
Method: A) Quantitative representation of changes in mouse body weight in dependence of the indicated IP daily doses of Foretinib (n=2 per dose). B) Changes in mouse blood plasma concentration of 5 mg/kg IP injected Foretinib during 48 hours after a single injection (n=3).
It is expected that Foretinib will protect against the diabetes-induced loss of terminal axons and ensheathing SC. In our previous study, 30 mg/kg of foretinib was administered via daily gavage for a course of 5 weeks. Although reported as non-toxic, at this dose the drug, along with a strong neuroprotective effect, caused lethargic behavior, ruffled fur and weight loss requiring early termination of the experiment. Due to the substantial prevalence of type 2 diabetes, we will examine the effect of foretinib treatment on type 2 diabetic mice (db/db). To define the maximal tolerable dose, we treated wt mice by daily intraperitoneal (IP) injection of several various dosages of foretinib for 20 days, while assessing the mice weight and behavior. […] Next, to define the pharmacokinetic (PK) characteristics of the drug, we performed a mass spectrometry analysis of blood samples from wt mice treated with 5 mg/kg (n=3 mice per dose per time point). We observed that IP injection of 5 mg/kg of foretinib generated nearly 100 ng/ml blood concentration during first 4 hours, declining by 4 ng/ml/hour (FIG. 7B).

COc1cc2c(Oc3ccc(NC(=O)C4(C(=O)Nc5ccc(F)cc5)CC4)cc3F)ccnc2cc1OCCCN1CCOCC1 [Foretinib, N1-[3-Fluoro-4-({6-methoxy-7-[3-(morpholin-4-yl)propoxy]quinolin-4-yl}oxy)phenyl]-N′1-(4-fluorophenyl)cyclopropane-1,1-dicarboxamide]
axonal die-back under trophic deprivation [1]: prevents axonal die-back mechanisms | effective neuroprotective concentration [2]: > 100 nM | cutaneous nerve fiber density as % of non-diabetic reference [3]: 67.3% | rescue of ER-stressor induced motor neuron death [4]: rescued Thapsigargin-and Tunicamycin-induced death | maximal tolerable dose not affecting behavior and body weight [5]: 5 mg/kg
